Experimental data taken from PubChem BioAssay AID1963973 (Molecular Pharmacology Branch, DTP, NCI, 2024).

Test system: 883617-216-R-J1-PDC tumor spheroids, viability
Assay: Anticancer human tumor 883617-216-R-J1-PDC patient-derived bladder carcinoma cell line growth inhibition [PI3K]
Details: spheroids with HUVEC and MSC; for IC50: curve of first compound; for viability, T/C: stronger effect = lower value
How it was run: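 Viability of mixed-cell spheroids was determined after exposure to pairwise combinations, one partner being inavolisib, alpelisib, duvelisib or copanlisib. Highest tested concentration matched clinical Cmax where known and 10 microM where not, descending in half-log steps.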

[1] = second compound 0.00316 µM, first compound 0.0316 µM
[2] = second compound 0.00316 µM, first compound 0.1 µM
[3] = second compound 0.00316 µM, first compound 0.316 µM
[4] = second compound 0.00316 µM, first compound 1 µM
[5] = second compound 0.00316 µM, first compound 3.16 µM
[6] = second compound 0.00316 µM, first compound 10 µM
[7] = second compound 0.01 µM, first compound 0.0316 µM
[8] = second compound 0.01 µM, first compound 0.1 µM
[9] = second compound 0.01 µM, first compound 0.316 µM
[10] = second compound 0.01 µM, first compound 1 µM
[11] = second compound 0.01 µM, first compound 3.16 µM
[12] = second compound 0.01 µM, first compound 10 µM
[13] = second compound 0.0316 µM, first compound 0.0316 µM
[14] = second compound 0.0316 µM, first compound 0.1 µM
[15] = second compound 0.0316 µM, first compound 0.316 µM
[16] = second compound 0.0316 µM, first compound 1 µM
[17] = second compound 0.0316 µM, first compound 3.16 µM
[18] = second compound 0.0316 µM, first compound 10 µM
[19] = second compound 0.1 µM, first compound 0.0316 µM
[20] = second compound 0.1 µM, first compound 0.1 µM
[21] = second compound 0.1 µM, first compound 0.316 µM
[22] = second compound 0.1 µM, first compound 1 µM
[23] = second compound 0.1 µM, first compound 3.16 µM
[24] = second compound 0.1 µM, first compound 10 µM
[25] = second compound 0.316 µM, first compound 0.0316 µM
[26] = second compound 0.316 µM, first compound 0.1 µM
[27] = second compound 0.316 µM, first compound 0.316 µM
[28] = second compound 0.316 µM, first compound 1 µM
[29] = second compound 0.316 µM, first compound 3.16 µM
[30] = second compound 0.316 µM, first compound 10 µM
[31] = second compound 1 µM, first compound 0.0316 µM
[32] = second compound 1 µM, first compound 0.1 µM
[33] = second compound 1 µM, first compound 0.316 µM
[34] = second compound 1 µM, first compound 1 µM
[35] = second compound 1 µM, first compound 3.16 µM
[36] = second compound 1 µM, first compound 10 µM
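Note: spheroids exposed to agents for 7 days before the viability read.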

What does the source list for `C=CC(=O)N1CCN(c2nc(=O)n(-c3c(C)ccnc3C(C)C)c3nc(-c4c(O)cccc4F)c(F)cc23)C(C)C1` (stereo unspecified) + COc1c(OCCCN2CCOCC2)ccc2c3n(c(=NC(=O)c4cnc(N)nc4)nc12)CCN3?
IC50 (second compound 0.00316 µM): < 31.6 nM; IC50 (second compound 0.01 µM): < 31.6 nM; IC50 (second compound 0.0316 µM): < 31.6 nM; IC50 (second compound 0.1 µM): < 31.6 nM; IC50 (second compound 0.316 µM): < 31.6 nM; IC50 (second compound 1 µM): < 31.6 nM; viability, T/C [1]: 54.8%; viability, T/C [2]: 40.3%; viability, T/C [3]: 44%; viability, T/C [4]: 46.3%; viability, T/C [5]: 52.3%; viability, T/C [6]: 53.9%; viability, T/C [7]: 46%; viability, T/C [8]: 34.9%; viability, T/C [9]: 33.4%; viability, T/C [10]: 41.1%; viability, T/C [11]: 43.5%; viability, T/C [12]: 38.7%; viability, T/C [13]: 21.4%; viability, T/C [14]: 19.8%; viability, T/C [15]: 16.6%; viability, T/C [16]: 22.3%; viability, T/C [17]: 24.1%; viability, T/C [18]: 24.5%; viability, T/C [19]: 8.54%; viability, T/C [20]: 3.86%; viability, T/C [21]: 6.45%; viability, T/C [22]: 8.64%; viability, T/C [23]: 10.2%; viability, T/C [24]: 9.28%; viability, T/C [25]: 1.88%; viability, T/C [26]: 1.7%; viability, T/C [27]: 1.81%; viability, T/C [28]: 2.12%; viability, T/C [29]: 2.85%; viability, T/C [30]: 2.77%; viability, T/C [31]: 1.07%; viability, T/C [32]: 0.62%; viability, T/C [33]: 0.69%; viability, T/C [34]: 0.95%; viability, T/C [35]: 1.99%; viability, T/C [36]: 0.95%

For `CC(Cn1ccc(-c2ccc(C#N)c(Cl)c2)n1)NC(=O)c1cc(C(C)O)[nH]n1` (stereo unspecified) + COc1c(OCCCN2CCOCC2)ccc2c3n(c(=NC(=O)c4cnc(N)nc4)nc12)CCN3, which IC50 (second compound 0.00316 µM) is on record?
Its IC50 is over 10000 nM.

And the IC50 (second compound 0.01 µM)?
Its IC50 is over 10000 nM.

And the IC50 (second compound 0.0316 µM)?
Its IC50 is under 31.6 nM.

What about the IC50 (second compound 0.1 µM) of the same compound?
Its IC50 is under 31.6 nM.

And the IC50 (second compound 0.316 µM)?
The IC50 was under 31.6 nM.

What about the IC50 (second compound 1 µM) of the same compound?
The IC50 was under 31.6 nM.

And the viability, T/C [1]?
The viability, T/C was 74.1%.

What about the viability, T/C [2] of the same compound?
The viability, T/C was 75.2%.

What about the viability, T/C [3] of the same compound?
The viability, T/C was 83.8%.

What about the viability, T/C [4] of the same compound?
The viability, T/C was 96.2%.

What about the viability, T/C [5] of the same compound?
Its viability, T/C is 83.8%.

What about the viability, T/C [6] of the same compound?
Its viability, T/C is 79.3%.

What about the viability, T/C [7] of the same compound?
Its viability, T/C is 68.8%.

And the viability, T/C [8]?
The viability, T/C was 70.4%.

And the viability, T/C [9]?
The viability, T/C was 70.3%.

And the viability, T/C [10]?
The viability, T/C was 65.6%.

And the viability, T/C [11]?
Its viability, T/C is 65.7%.

And the viability, T/C [12]?
The viability, T/C was 64.2%.

And the viability, T/C [13]?
The viability, T/C was 31.1%.

What about the viability, T/C [14] of the same compound?
Its viability, T/C is 33%.

And the viability, T/C [15]?
The viability, T/C was 37.3%.

What about the viability, T/C [16] of the same compound?
The viability, T/C was 29.4%.

What about the viability, T/C [17] of the same compound?
Its viability, T/C is 35.7%.

What about the viability, T/C [18] of the same compound?
The viability, T/C was 30.2%.

What about the viability, T/C [19] of the same compound?
Its viability, T/C is 14.9%.

And the viability, T/C [20]?
Its viability, T/C is 11%.

And the viability, T/C [21]?
Its viability, T/C is 14.6%.

What about the viability, T/C [22] of the same compound?
The viability, T/C was 19%.

And the viability, T/C [23]?
The viability, T/C was 13.3%.

What about the viability, T/C [24] of the same compound?
The viability, T/C was 11.6%.

What about the viability, T/C [25] of the same compound?
Its viability, T/C is 5.01%.

And the viability, T/C [26]?
Its viability, T/C is 4.53%.

And the viability, T/C [27]?
The viability, T/C was 4.26%.

What about the viability, T/C [28] of the same compound?
The viability, T/C was 4.08%.

And the viability, T/C [29]?
Its viability, T/C is 5.69%.

And the viability, T/C [30]?
The viability, T/C was 4.16%.

What about the viability, T/C [31] of the same compound?
Its viability, T/C is 3.17%.

And the viability, T/C [32]?
The viability, T/C was 2.54%.

And the viability, T/C [33]?
Its viability, T/C is 3.2%.

What about the viability, T/C [34] of the same compound?
Its viability, T/C is 3.42%.

And the viability, T/C [35]?
The viability, T/C was 4.42%.

And the viability, T/C [36]?
Its viability, T/C is 4.01%.

What does the source list for `Cn1nccc1Nc1nccc(-c2ccn(C(CO)c3ccc(Cl)c(F)c3)c(=O)c2)n1` (stereo unspecified) + COc1c(OCCCN2CCOCC2)ccc2c3n(c(=NC(=O)c4cnc(N)nc4)nc12)CCN3?
IC50 (second compound 0.00316 µM): 3300 nM; IC50 (second compound 0.01 µM): 335 nM; IC50 (second compound 0.0316 µM): < 31.6 nM; IC50 (second compound 0.1 µM): < 31.6 nM; IC50 (second compound 0.316 µM): < 31.6 nM; IC50 (second compound 1 µM): < 31.6 nM; viability, T/C [1]: 83.4%; viability, T/C [2]: 76.7%; viability, T/C [3]: 64.6%; viability, T/C [4]: 65%; viability, T/C [5]: 47.9%; viability, T/C [6]: 40.4%; viability, T/C [7]: 59.4%; viability, T/C [8]: 59.5%; viability, T/C [9]: 51%; viability, T/C [10]: 40.4%; viability, T/C [11]: 39.9%; viability, T/C [12]: 33.8%; viability, T/C [13]: 39.3%; viability, T/C [14]: 33.5%; viability, T/C [15]: 26.7%; viability, T/C [16]: 27.8%; viability, T/C [17]: 21.5%; viability, T/C [18]: 14.3%; viability, T/C [19]: 12.8%; viability, T/C [20]: 12.8%; viability, T/C [21]: 10.5%; viability, T/C [22]: 7.47%; viability, T/C [23]: 6.96%; viability, T/C [24]: 6.94%; viability, T/C [25]: 5.61%; viability, T/C [26]: 3.51%; viability, T/C [27]: 4.13%; viability, T/C [28]: 1.85%; viability, T/C [29]: 1.07%; viability, T/C [30]: 1.21%; viability, T/C [31]: 2.27%; viability, T/C [32]: 1.46%; viability, T/C [33]: 0.6%; viability, T/C [34]: 0.25%; viability, T/C [35]: 0.12%; viability, T/C [36]: 0.12%
